# “Also recorded” adds a separate entry of the source.
# Tests used:
# apical mucus secretions = experiment: Rheologic measurements of apical mucus secretions from EpiAirway cultures; assay type: cell-based, human
# Protocol: EpiAirway cultures (normal human bronchial epithelial) cells grown on Millipore Transwells, 1 or 4.2 cm^2 surface area. The cells were purchased from MatTek, and were cultured at air-liquid interface for two (mucus synthesis and secretion) or three (mucociliary transport and mucus rheology) weeks prior to use. Following the analysis of clearance, mucus was harvested from the apical surface of the cultures, without dilution. The rheological properties of apical mucus secretions (20 μL) were measured using an AR1000 controlled stress rheometer (TA Instruments, New Castle, Del.) using a parallel plate geometry. The dynamic linear viscoelastic behavior was determined from the strain response to an oscillating stress and reported as a storage or elastic modulus (G′), and loss or viscous (G″) modulus, as a function of frequency ω such that viscosity, η′=G″/ω. Rheologic data can also be presented using vectorial notation as tangent δ which is the ratio of viscosity to elasticity and G*, the vector sum of viscosity and elasticity (mechanical impedance). When stress in the linear range is used to evaluate the materials, the material properties are independent of stress. In order to conduct a frequency sweep from 0.1 to 1000 rad/s, viscoelasticity was evaluated using a creep test at 0.5 Pa for 2 minutes. The strain response was fitted to a discrete relaxation spectrum, transformed to the retardation spectrum, and then to the storage and loss moduli, as a function of frequency, using methods developed by the PI. The linear viscoelasticity was evaluated at 1 and 100 rad/s and an oscillatory stress sweep and steady shear flow experiments were used to evaluate the behavior in the non-linear ranges. The oscillatory sweep data were analyzed by observing the stress where G′ and G″ crossed. […] All rheologic measurements were made by technicians who were blinded to the treatment group origin. For rheology experiments, data were analyzed using the StatView™ 5 statistics package. Raw data were visually confirmed to be normally distributed about the mean. […]
# MUC5AC mucins = experiment: MUC5AC mucin secretion and production by ELISA in EpiAirway (NHBE) cultures at air/liquid interface; assay type: cell-based, human
# Protocol: EpiAirway cultures (normal human bronchial epithelial) cells grown on Millipore Transwells, 1 or 4.2 cm^2 surface area. The cells were purchased from MatTek, and were cultured at air-liquid interface for two (mucus synthesis and secretion) or three (mucociliary transport and mucus rheology) weeks prior to use. GUAIFENESIN solutions were prepared by dissolving in PBS (phosphate buffered saline) immediately before treatment of the cells. MUCSAC mucins were quantified by ELISA using 45M1 antibody (Labvision, Fremont, Calif.). Confluent 1 cm^2 NHBE cells grown on an air/liquid interface were washed from the apical surface with 200 μL PBS and incubated with fresh complete growth medium added to the basal chamber. Cultures were incubated 24 hours to collect the apical fluid (pretreatment sample or PT) by adding 100 μL PBS to the apical surface of the cultures. PBS was added to dilute the highly viscous, thin mucus layer on the surface. Because of the small size of the insert, it was not feasible to collect a sufficient amount of mucus for both pharmacology and rheology without the addition of PBS. After collecting 100 μL of the diluted mucus samples (PT), cultures were divided into three groups (6 hr, 24 hr and 48 hr), 16 inserts per group, and treated with varying concentrations of guaifenesin (0, 0.2, 2, 20 μg/mL) for each time group, 4 inserts per each dose. Thus, a total of 48 inserts were used for this study (4 inserts/dose×4 doses/time point×3 time points). The apical fluid was collected at 30 minutes following drug treatment from all the cultures to see whether guaifenesin affects the “secretion” of mucins. The apical mucus sample was collected in two steps—first by adding 100 μL PBS to the apical surface (1st wash) and then by adding 100 μL PBS containing 5 mM dithiothreitol (DTT) (2nd wash). Samples from each wash were assayed for MUC5AC content and the sum of the two values (the 1st and 2nd wash) was expressed as the “released MUC5AC” of the culture. At the three different time points (i.e., 6, 24, and 48 hr), cultures were washed to collect the apical fluid as described above (“released mucin”) and lysed using a lysis buffer (PBS, pH 7.2, […], 2 mM EDTA, 1 mM PSMF and 5 mM DTT) (“cellular mucin”). The amount of mucin in each sample (either secreted, released or cell lysate) was divided by the amount of mucin in the PT sample collected from the same well in order to obtain a “secretory index” to compensate for the variations among the cultures. The treatment protocol is depicted in FIG. 1. For mucin secretion, differences between control and guaifenesin treatment groups were assessed by comparing the means using Student's t-test for unpaired samples and p<0.05 was considered significant. All the values in the figures represent means ±SEM of 4 cultures unless otherwise stated. *p<0.05, **p<0.01
# [1] = system: EpiAirway cultures (normal human bronchial epithelial) cells; experiment: Viability: metabolic activity by Water Soluble Tetrazolium (WST) assay; assay type: cell-based; settings: 1 or 6 hr treatment
# Protocol: EpiAirway cultures (normal human bronchial epithelial) cells grown on Millipore Transwells, 1 or 4.2 cm^2 surface area. The cells were purchased from MatTek, and were cultured at air-liquid interface for two (mucus synthesis and secretion) or three (mucociliary transport and mucus rheology) weeks prior to use.
# The apical surfaces of the cultures were then washed with PBS and the metabolic activity, an indicator of viability, was measured using the Water Soluble Tetrazolium (WST) assay (Boehringer).
# Metabolic activity was assessed using the WST assay, separately added to the apical or basal surfaces of the cultures.
# [2] = system: EpiAirway cultures (normal human bronchial epithelial) cells; experiment: Mucociliary clearance: rate of movement of endogenous cell debris on EpiAirway cultures; assay type: cell-based
# Protocol: EpiAirway cultures (normal human bronchial epithelial) cells grown on Millipore Transwells, 1 or 4.2 cm^2 surface area. The cells were purchased from MatTek, and were cultured at air-liquid interface for two (mucus synthesis and secretion) or three (mucociliary transport and mucus rheology) weeks prior to use. For mucociliary clearance, a stock guaifenesin solution of 2 mg/mL in culture medium was prepared in the morning of each experiment and kept cold until dilution into warmed medium to the target concentrations of 0.2, 2, 20 or 200 μg/mL. The medium in the basolateral compartment of each culture was replaced with the GGE-containing medium, and the cultures were returned to the 37° C., 5% CO2 incubator for as the times indicated. The experiments were repeated three times on independent cultures. Cultures (4.2 cm^2) were exposed to basolateral guaifenesin for 1 or 6 hr. […] The rate of movement of endogenous cell debris was analyzed on the video images using a transparent template overlay on the video images and a stopwatch to measure at least 5 particles on each culture, for a total of between 30 and 45 measurements per condition. For mucociliary clearance, differences between control and guaifenesin treatment groups were assessed by comparing the means using ANOVA, with a Bonferroni post-test to assess differences from the controls tested at the same time after treatment. […]
# [3] = 24 hour treatment, 2 μg/mL or 20 μg/mL
compound,measurement,setting,value
"COc1ccccc1OCC(O)CO (centres unmarked) [guaifenesin, 3-(2-methoxyphenoxy)-1,2-propanediol]","viscosity, elasticity and complex modulus (G*) of mucus","apical mucus secretions; 1 rad/s (ciliary frequency), 1 hour, p<0.05",dose-dependent decrease
same,"viscosity, elasticity and complex modulus (G*) of mucus","apical mucus secretions; 1 rad/s (ciliary frequency), 6 hours, p<0.01",dose-dependent decrease
same,"viscosity, elasticity and complex modulus (G*) of mucus",apical mucus secretions; 100 rad/s (corresponding to cough),not significantly
same,secreted MUC5AC versus control,"MUC5AC mucins; 30 min treatment, 0.2, 2, 20 μg/mL",no significant difference
same,total amounts of mucins produced,"MUC5AC mucins; 6 hour treatment, 2 μg/ml and 20 μg/ml",significantly (p<0.01) suppressed; also recorded: suppressed the production of mucins
same,amounts of mucins released,"MUC5AC mucins; 6 hours treatment, NHBE cells",did not affect
same,mucin production,MUC5AC mucins; [3],significantly suppressed; also recorded: suppressed the production of mucins
same,mucin release,MUC5AC mucins; [3],significantly suppressed; also recorded: significant (p<0.05) decrease in mucin release
same,amount of mucin released,MUC5AC mucins; 48 hours treatment,did not seem to be significantly affected
same,production of mucins,"MUC5AC mucins; 48 hours treatment, 2 μg/mL and 20 μg/mL",significantly (p<0.01) suppressed; also recorded: suppressed the production of mucins
same,viability of the cells (WST assay),[1],no adverse effect on the viability
same,metabolic activity (WST assay),[1]; did not reach statistical significance,trend to increased metabolic activity
same,mucociliary clearance (mobility of cellular debris on culture surface),"[2]; 1 hr treatment, only 2 μg/ml statistically significant, little dose-response",appeared to increase the mobility of the cellular debris
same,mucociliary clearance (movement of surface material),"[2]; 6 hr treatment, all three concentrations tested, strong trend to a dose response",significantly faster than the control
